Experiments:
[1] = system: Helicobacter pyroli; assay: AHP: Antibacterial Activity Test Against Helicobacter pyroli (agar dilution); format: cell-based, HP NCTC 11637; settings: Helicobacter, NCTC11637, 168 h; HP NCTC 11637, agar dilution, 7 days; read-out: AHP minimum inhibitory concentration (MIC)
Description: AHP: Antibacterial Activity Test Against Helicobacter pyroli i) Meaning The minimum inhibitory concentration (MIC) against Helicobacter pyroli (microaerophilic gram-negative bacterium which is supposed to deeply involve in pathogenesis, relapse, and recrudescence of ulcer, referred to as "HP" in the following) is measured so as to find out compounds which have antimicrobial activity against Helicobacter pyroli. ii) Method MICs were determined by the agar dilution method. The stock culture (-80° C.) of HP NCTC 11637 was thawed and cultured on tripticase soy agar supplemented with 5% sheep blood at 37° C. in an atmosphere of 5% O2, 10% CO2, and 85% N2. Grown colonies were transferred to the same plate and precultured for 3 days under the same condition. […] 10 μl of the bacterial suspension for inoculation (about 10^3 cfu) was inoculated on this plate and cultured for 7 days under the same condition as that of preculture. […] As the result of the comparison of these plates, when the number of the colony on the plate containing the sample compound was less than 90% with respect to that on the control plate, it was represented by "+". Contrary to this, when there was 90% or more, it was represented by "-".

[2] = system: isolated gastric fundic gland; assay: CAP: Acid Secretion Inhibition Test In Vitro ([14C]-aminopyrine uptake); format: cell-based, rabbit (male Japanese White); settings: Oryctolagus cuniculus; final concentration 10^-5 M; histamine 10^-5 M; rabbit gastric fundic glands; read-out: CAP acid secretion inhibitory rate
Description: CAP: Acid Secretion Inhibition Test In Vitro
The acid secretion inhibitory activity in a cell level is studied. It can also be used for studying the mechanism of the effect. […]
ii-a) Preparation of Isolated Gastric Fundus Gland Suspension
First, an isolated gastric fundic gland sample was prepared. Namely, a male Japanese White rabbit (2.5 to 3 kg) was anesthetized to death with Nembutal™ and then the abdomen was incised. Immediately thereafter, the stomach was removed and, after its pyloric and cardiac antrum were severed, incised along its greater curvature into two sheets. The gastric contents adhering to the mucosal surface was washed out with ice-cooled PBS (-) and then carefully washed therein. The gastric wall was spread on a cork board with its mucosal surface facing up and the feed and mucus thereon were completely removed with sterile gauze. The mucosa was separated therefrom by a spatula and then collected in ice-cooled PBS (-). After being washed twice with PBS (-), the mucosa was minced into 2-3 mm^3 pieces by scissors. These pieces were further washed twice with a nutrient solution. […] Into 70 ml of the nutrient solution containing 1 mg/ml of collagenase, minced mucosal pieces were dispersed and intensely stirred in a conical flask with a stirrer at 37° C. for 40 to 60 minutes. During this period, 100% O2 was sprayed on the nutrient solution surface and the pH was appropriately measured such that it was immediately adjusted to pH 7.4, when the value was therebelow, with a base. The nutrient solution was added to the reaction solution so as to attain the total amount of about 200 ml. After being filtered through a mesh, the suspension was divisionally introduced into 50 ml centrifuge tubes and left for 15 minutes such that gastric fundic gland was deposited. The supernatant was repeatedly removed by an aspirator, dispersed in the nutrient solution, and then left such that the gastric fundic gland was washed three times. At this time, without using a pipette, the suspension was alternately introduced into two centrifuge tubes so as to effect dispersion. The number of cells was counted under microscope and adjusted to 1.6×10^6 cells/ml. […]
ii-b) [^14 C]-aminopyrine Uptake Test
Then, [^14 C]-aminopyrine uptake test was performed. After an Eppendorf tube was weighed, 10 μl (final concentration: 10^-5 M) of histamine dissolved in the above-mentioned nutrient solution, 10 μl (final concentration: 10^-5 M) of the test compound dissolved in DMSO, and 10 μl (final concentration: 0.05 μCi/ml) of [^14 C]-aminopyrine diluted with the nutrient solution were introduced therein and then 970 μl of the isolated gastric fundic gland suspension prepared above was added thereto. […] After being centrifuged for 30 minutes, 200 μl of its supernatant was collected into a mini-vial, while the rest was removed by an aspirator. The gland pellet was completely dried as the tube with its lid being opened was kept for one night in a drying oven at 80° C. and then the lid was closed and the weight was determined at room temperature. Then 100 μl of 1N KOH was added thereto and the tube with its lid being closed was treated at 60° C. for 1 to 2 hours so as to dissolve the pellet. Then, the contents thereof were transferred to a mini-vial. Into the mini-vial containing the supernatant or gland pellet, 4 ml of Atomlite™ was added and then the radioactivity was measured by a liquid scintillation counter. Here, after the radioactivity of the gland pellet was corrected by using a sample in which 20 mM of NaSCN was added so as to cancel the hydrogen ion concentration gradient, the integration ratio of aminopyrine specifically trapped by the gland pellet was calculated. This experiment was performed in duplicate. […]
ii-c) Calculation of the Accumulation Rate of Aminopyrine
Here, its principle will be briefly explained. In the isolated gastric fundic gland, acid is accumulated in a space between its secretory tubule and intraglandular cavity.

[3] = system: stress ulcer; assay: WIS: Restraint and Water Immersion Stress-Induced Ulcer Inhibition Test; format: in vivo, rat (male Crj:SD or Slc:SD); settings: 100 mg/kg oral, rats, 7 hours restraint and water immersion (21° C.)
Description: WIS: Restraint and Water Immersion Stress-Induced Ulcer Inhibition Test
The degree of inhibition of the stress ulcer formation is tested.
Male Crj:SD or Slc:SD rats (6 to 7-week-old) were fasted overnight, but allowed free access to water. Each group has 5 to 8 of these rats. […] To a control group, the vehicle was administered. 10 minutes later, the rats were placed in a stress cage and immersed to the level of xipfoid process in a water bath (21° C.) for 7 hours. At the end of the stress, the rats were sacrificed by inhalation of ether or carbon dioxide. Then, the stomach of each was removed, inflated by injecting 10 ml of 5% formalin neutral buffer solution, and immersed in 1% formalin neutral buffer solution for 30 minutes or more to be fixed. The stomach was incised along the greater curvature and then the length of each erosion in the glandular portion was determined under dissecting microscope. The sum of the length of erosions per stomach was defined as ulcer index (UI).
The effect obtained when 100 mg/kg of the sample compound had been administered was expressed as ulcer formation inhibitory rate (%) as follows:
ulcer formation inhibitory rate (%)=(1-(UI in sample group/UI in control group))×100

With CC(C)=CCC/C(C)=C/COc1ccc(C(=O)N2CCN(CCNC(=O)c3ccc4c(c3)OCO4)CC2)cc1 [Example 1, 1-(4-geranyloxy)benzoyl-4-[2-(piperonyloylamino)ethyl]piperazine] the MIC [1] was < 3.13 µg/mL, the inhibition at 10 µM [2] was 100% and the “WIS ulcer formation inhibitory rate” value [3] was 81%.

Reference: patent publication US5962456A, “N-acylpiperazine derivative, anti-ulcer drug, and antibacterial drug” (Shiseido Co., Ltd., priority 1996, dated 1999)
